The first assay deals with E. coli ATCC25922. Nature of the assay: Antibacterial activity in combination with minocycline (growth inhibition). It is filed as cell-based. The settings on record: Escherichia coli, ATCC25922, compound at 25 μM; minocycline 0.25 μg/mL; OD625 23 h minus 1 h; read-out: residual growth of E. coli ATCC25922 (% of uninhibited control) with minocycline. On the procedure:
Antibacterial activity in combination with minocycline or with linezolid
Inhibition of growth was measured with E. coli ATCC25922 and P. aeruginosa PAO1 in a 96-well plate format. Cation-adjusted Müller-Hinton broth (caMHB) was inoculated with an overnight culture and incubated at 37° C. on a shaker until OD625 reached 0.6 to 0.7. Density was adjusted to OD600=0.5 by addition of caMHB. 35 μL of the suspension were diluted to 35 mL with caMHB and supplemented with minocycline at the subinhibitory doses of 0.25 μg/mL for E. coli and 8 μg/mL for P. aeruginosa or with linezolid at the subinhibitory dose of 128 μg/mL for E. coli and P. aeruginosa. Each well contained 1 μL of test compound in 100 μL caMHB with minocycline or with linezolid.
Plates were incubated at 37° C. on a plate shaker. OD625 was measured at 1 h, 6 h, and at 23 h.
The difference between OD at 23 h and at 1 h was taken as measure for cell density and compared to controls without inhibitor (i.e. uninhibited control). Results were expressed as residual growth (% of uninhibited control). Enhancement of minocycline or linezolid activity caused reduced residual growth.
With `Clc1ccc(COc2cccc(CNCC3CNC3)c2)c(Br)c1` [Example 18], the activity at 25 µM is not above 10%.

Take `Clc1ccc(-c2ccc(CNCC3CNC3)cc2)cc1` [Example 25]: the activity at 25 µM is not above 10%.

With `CC(C)(c1ccccc1)c1ccc(OCCCNCC2CNC2)cc1` [Example 29], the activity at 25 µM is not above 10%.

Turning to `Clc1ccc(COc2cccc(CNCC3CCNC3)c2)c(Br)c1` (stereo not shown) [Example 30], the activity at 25 µM is not above 10%.

For `CC(C)(c1ccccc1)c1ccc(OCCCNCC2CCNCC2)cc1` [Example 31], the activity at 25 µM is not above 10%.

In the case of `CC(C)(c1ccccc1)c1ccc(OCCCNCC2CCNC2)cc1` (stereo not shown) [Example 32], the activity at 25 µM was not above 10%.

As to `Clc1ccc(COc2ccccc2CNCC2CNC2)c(Br)c1` [Example 33], the activity at 25 µM is not above 10%.

As for `Fc1ccc(COc2cccc(CNCC3CNC3)c2)c(F)c1` [Example 34], the activity at 25 µM was not above 10%.

Consider `Clc1ccc(COc2cccc(CNCC3CCNCC3)c2)c(Br)c1` [Example 35], for which the activity at 25 µM is not above 10%.

Turning to `Clc1cc(CNCC2CNC2)cc(OCc2ccc(Cl)cc2Br)c1` [Example 37, N-(azetidin-3-ylmethyl)-1-[3-[(2-bromo-4-chloro-phenyl)methoxy]-5-chloro-phenyl]methanamine], the activity at 25 µM was not above 10%.

Regarding `Clc1ccc(OCc2cccc(CNCC3CNC3)c2)c(Br)c1` [Example 38], the activity at 25 µM is not above 10%.

Take `CC(C)(c1ccccc1)c1ccc(OCCNCC2CCNCC2)cc1` [Example 39]: the activity at 25 µM was not above 10%.

As to `Clc1cc(Cl)cc(COc2cccc(CNCC3CNC3)c2)c1` [Example 40], the activity at 25 µM is not above 10%.

With `Brc1ccccc1COc1cccc(CNCC2CNC2)c1` [Example 41], the activity at 25 µM was not above 10%.

As for `CC(C)(c1ccccc1)c1ccc(OCCNCC2CCNC2)cc1` (stereo not shown) [Example 42], the activity at 25 µM is not above 10%.

As to `Fc1cc(F)cc(COc2cccc(CNCC3CNC3)c2)c1` [Example 43], the activity at 25 µM is not above 10%.

Turning to `CC(C)(c1ccccc1)c1ccc(CNCC2CCNC2)cc1` (stereo not shown) [Example 44], the activity at 25 µM is not above 10%.

Take `CC(C)(c1ccccc1)c1ccc(CNCC2CNC2)cc1` [Example 45]: the activity at 25 µM is not above 10%.

On to `CC(C)(c1ccccc1)c1ccc(CNCC2CCNCC2)cc1` [Example 46], for which the activity at 25 µM is not above 10%.

As to `FC(F)(F)c1cc(Br)ccc1COc1cccc(CNCC2CNC2)c1` [Example 47], the activity at 25 µM was not above 10%.

Take `FC(F)(F)c1ccc(COc2cccc(CNCC3CNC3)c2)c(Cl)c1` [Example 49]: the activity at 25 µM was not above 10%.

Regarding `Clc1ccc(CSc2cccc(CNCC3CNC3)c2)c(Br)c1` [Example 51, N-(azetidin-3-ylmethyl)-1-[3-[(2-bromo-4-chloro-phenyl)methylsulfanyl]phenyl]methanamine], the activity at 25 µM was not above 10%.

As for `Fc1cc(Br)ccc1COc1ccc(CNCC2CCNCC2)cc1` [Example 52], the activity at 25 µM is not above 10%.

As to `Clc1ccc(OCc2cccc(CNC3CCNCC3)c2)c(Br)c1` [Example 53], the activity at 25 µM was not above 10%.

As to `Fc1cc(Br)ccc1COc1ccc(CNCC2CCNC2)cc1` (stereo not shown) [Example 55], the activity at 25 µM was not above 10%.

As for `Fc1cc(Br)ccc1COc1ccc(CNCC2CNC2)cc1` [Example 56], the activity at 25 µM was not above 10%.

Take `Clc1ccc(OCc2cccc(CCNCC3CNC3)c2)c(Br)c1` [Example 58]: the activity at 25 µM is not above 10%.

`CC(C)(C)c1ccc(COc2ccc(CNC3CCNCC3)cc2)cc1` [Example 59]: the activity at 25 µM is not above 10%.

Consider `Fc1cc(Br)ccc1COc1ccc(CNC2CCNCC2)cc1` [Example 60], for which the activity at 25 µM is not above 10%.

`Clc1ccc(/C=C/c2cccc(CNCC3CNC3)c2)c(Br)c1` [Example 61]: the activity at 25 µM was not above 10%.

In the case of `Clc1ccc(-c2ccc(CNCC3CCNC3)cc2)c(Br)c1` (stereo not shown) [Example 62], the activity at 25 µM is not above 10%.

`Clc1ccc(CCc2cccc(CNCC3CNC3)c2)c(Br)c1` [Example 64, N-(azetidin-3-ylmethyl)-1-[3-[2-(2-bromo-4-chloro-phenyl)ethyl]phenyl]methanamine]: the activity at 25 µM was not above 10%.

`Clc1ccc(OCc2cccc(CNCC3CNCCO3)c2)c(Br)c1` (stereo not shown) [Example 65]: the activity at 25 µM is not above 10%.

For the compound `Clc1ccc(COc2ccc(CNCC3CNC3)cc2)cc1Cl` [Example 66], the activity at 25 µM is not above 10%.

Consider `Clc1ccc(COc2ccc(CNCC3CCNCC3)cc2)cc1Cl` [Example 67], for which the activity at 25 µM is not above 10%.

With `Clc1ccc(-c2ccc(CNCC3CNC3)cc2)c(Br)c1` [Example 68, N-(azetidin-3-ylmethyl)-1-[4-(2-bromo-4-chloro-phenyl)phenyl]methanamine], the activity at 25 µM is not above 10%.

Consider `Clc1ccc(COc2ccc(CNCC3CCNC3)cc2)cc1Cl` (stereo not shown) [Example 70], for which the activity at 25 µM is not above 10%.

As for `Brc1ccccc1COc1ccc(CNC2CCNCC2)cc1` [Example 71], the activity at 25 µM was not above 10%.

For `Brc1ccccc1COc1ccc(CNCC2CCNCC2)cc1` [Example 72], the activity at 25 µM was not above 10%.

For `Clc1ccc(OCc2cccc(CCCNCC3CNC3)c2)c(Br)c1` [Example 73], the activity at 25 µM was not above 10%.

With `Clc1ccc(-c2cccc(CNCC3CNC3)c2)c(Br)c1` [Example 75], the activity at 25 µM is not above 10%.

On to `Brc1ccccc1COc1ccc(CNCC2CCNC2)cc1` (stereo not shown) [Example 80], for which the activity at 25 µM was not above 10%.

Turning to `Clc1ccc(Oc2ccc(CNCC3CNC3)cc2)c(Br)c1` [Example 81], the activity at 25 µM was not above 10%.

For the compound `Clc1ccc(Oc2ccccc2CNCC2CCNC2)c(Br)c1` (stereo not shown) [Example 84], the activity at 25 µM was not above 10%.

On to `N#Cc1ccc(COc2ccc(CNCC3CNC3)cc2)c(Br)c1` [Example 85], for which the activity at 25 µM is not above 10%.

With `Clc1ccc(Oc2cccc(CNCC3CCNC3)c2)c(Br)c1` (stereo not shown) [Example 88, 1-[3-(2-bromo-4-chloro-phenoxy)phenyl]-N-(pyrrolidin-3-ylmethyl)methanamine], the activity at 25 µM is not above 10%.

As for `Clc1ccc(Oc2cccc(CNCC3CNC3)c2)c(Br)c1` [Example 90], the activity at 25 µM is not above 10%.

Regarding `c1ccc(-c2cccc(COc3cccc(CNCC4CNC4)c3)c2)cc1` [Example 94], the activity at 25 µM is not above 10%.

Staying with this assay, now noted: Escherichia coli, ATCC25922, compound at 50 μM; minocycline 0.25 μg/mL; OD625 23 h minus 1 h; read-out: residual growth of E. coli ATCC25922 (% of uninhibited control) with minocycline.
With `Clc1ccc(COc2ccccc2CNCC2CCNCC2)cc1` [Example 5], the activity at 50 µM is not above 50%.

Turning to `Clc1ccccc1COc1ccccc1CNCC1CCNCC1` [Example 8], the activity at 50 µM was not above 50%.

With `Clc1ccc(COc2cccc(CNCC3CNC3)c2)cc1` [Example 13], the activity at 50 µM was not above 50%.

Consider `Clc1ccc(COc2ccccc2CNCC2CNC2)cc1` [Example 22], for which the activity at 50 µM is not above 50%.

Regarding `Clc1ccc(COc2cccc(NCC3CNC3)c2)cc1` [Example 23, N-(azetidin-3-ylmethyl)-3-[(4-chlorophenyl)methoxy]aniline], the activity at 50 µM is not above 50%.

Regarding `Clc1ccc(-c2ccccc2CNCC2CCNC2)c(Br)c1` (stereo not shown) [Example 69], the activity at 50 µM is not above 50%.

The same assay, now with this note: Escherichia coli, ATCC25922, read-out: residual growth of E. coli ATCC25922 (% of uninhibited control) with minocycline, compound at 25 μM; minocycline 0.25 μg/mL; OD625 23 h minus 1 h.
On to `Clc1ccc(C=CCc2cccc(CNCC3CNC3)c2)c(Br)c1` (mixture of isomers) [Example 168, N-(azetidin-3-ylmethyl)-1-[3-[(Z/E)-3-(2-bromo-4-chloro-phenyl)allyl]phenyl]methanamine], for which the activity at 25 µM is not above 10%.

These data come from US10464896B2, “Efflux-pump inhibitors and therapeutic uses thereof” (Basilea Pharmaceutica International AG, priority 2015, dated 2019).
